These results are taken from US5530097A, “Human cancer inhibitory peptide amides” (Arizona Board of Regents acting on behalf of Arizona State …, priority 1994, dated 1996).

Holding throughout (format): cell-based
The subject of test [1] is A498. Nature of the test: NCI in vitro mini panel, human cancer cell line growth inhibition. The note with it: Renal A498, 48 hrs. As for the experimental part: (§1) ED50 (P388) and GI50 (HTCL) identify the drug dose which reduces the percent tumor/cell growth to 50%. There is no mathematical difference between ED50 and GI50, both of which are calculated using the same formula. The only difference is historical usage.
(§2) TGI, means "Total Growth Inhibition", and identifies the drug dose needed to yield zero percent growth, i.e. there are just as many cells at the end of the experiment as were present at the beginning. Whether just as many cells were killed as were produced (steady state), or no growth occurred (total inhibition) cannot be distinguished.
(§3) LC50, means "Lethal Concentration 50%", and identifies the drug concentration which reduces to one-half of the cells originally present at the beginning of the experiment.
(§4) Each drug is tested at five (5) doses: 100--10-1-0.1--0.01 μg/mL. Percent Growths are calculated for each dose. The two (or three) doses with growth values above, below, (or near to) 50% growth are used to calculate the ED50 /GI50 values using a linear regression computation. If no dose yields a growth value under 50%, the results are expressed as: ED50 >(highest dose). If no dose yields growth higher than 50% growth, then ED50 <(lowest dose). Similar calculations are performed for the TGI at 0% growth, and at -50% growth for the LC50.
(§5) At the start of each experiment, cells from the in vitro cell cultures are inoculated into the appropriate tubes or microtiter plates. One set of control tubes/plates is immediately counted to determine the number of cells at the start of the experiment. This is the "baseline count", or "Tzero reading". At the end of the experiment (48 hrs later), a second set of control tubes/plates is analyzed to determine the "Control Growth" value. The growth (or death) of cells relative to the initial quantity of cells is used to define the "Percent of Growth."
(§6) Similarly, the compounds disclosed herein have also been tested against an NCI in vitro mini panel. For each of six cell lines GI50, TGI, and LC50 amounts were calculated for each compound. Each compound was also tested against the PS-388 cell line and for this test an ED50 was calculated.
(§7) The protocols followed, for the NCI minipanel are, except for the number of cell lines, those established by M. R. Boyd Ph.D., and well known to those of ordinary skill in the art. The procedure followed for the test against PS-388 Leukemia is the same that was followed in the superseded NCI P-388 screening test, which is also well known to those having ordinary skill in the art.

Test [2] relates to KM20L2. The description is as above. As to conditions: Colon KM20L2, 48 hrs. On the procedure: as §1, §2, §3, §4, §5, §6, §7
Test [3] has as its system NCI-H460. The description is as above. As to conditions: Lung-NSC NCI-H460, 48 hrs. On the procedure:
as §1, §2, §3, §4, §5, §6, §7

Test [4] has as its system OVCAR-3. The test is described as above. The note with it: Ovarian OVCAR-3, 48 hrs. On the procedure:
as §1, §2, §3, §4, §5, §6, §7

Test [5] deals with SF-295. The test is described as above. The note with it: CNS SF-295, 48 hrs. As for the experimental part: as §1, §2, §3, §4, §5, §6, §7
The test system of test [6] is SK-MEL-5. The description is as above. The note with it: Melanoma SK-MEL-5, 48 hrs. On the procedure:
as §1, §2, §3, §4, §5, §6, §7

Test [7] relates to PS-388. As to the kind of experiment: PS-388 mouse leukemia cell line test. As to conditions: Mouse Leukemia PS-388. As for the experimental part: as §1, §4, §5, §6, §7

For the substance “L-Dolavalyl-L-Leucyl-N-methyl-(3R,4S,5S)-Dolaisoleuinyl-(2R,3R,4S)-Dolaproinyl-L-Proline N-2-benzothiazolamide [8f]”, the GI-50 in test [1] is above 0.01 µg/mL; in test [2], 0.0074 µg/mL; in test [3], above 0.01 µg/mL; in test [4] it was 0.0033 µg/mL; in test [5], above 0.01 µg/mL; in test [6], 0.0043 µg/mL. In addition, the LC-50 in test [1], in test [2], in test [3], in test [4], in test [5] and in test [6] was above 0.01 µg/mL throughout. Moreover, the TGI in test [1], in test [2], in test [3], in test [4], in test [5] and in test [6] was above 0.01 µg/mL in each case. The ED-50 in test [7] was determined as 0.00405 µg/mL.
On to “L-Dolavalyl-L-Leucyl-N-methyl-(3R,4S,5S)-Dolaisoleuinyl-(2R,3R,4S)-Dolaproinyl-N-2(2-chlorophenyl) ethylamide [10b]”, for which the GI-50 in test [1] is 0.00069 µg/mL; in test [2], 0.00031 µg/mL; in test [3] it was 0.00033 µg/mL; in test [4] it was 0.00031 µg/mL; in test [5] it was 0.00042 µg/mL; in test [6] it was 0.00043 µg/mL. Further, the LC-50 in test [1], in test [2], in test [3], in test [4], in test [5] and in test [6] was above 0.01 µg/mL each time. Also, the TGI was above 0.01 µg/mL in test [1]; 0.0013 µg/mL in test [2]; 0.0014 µg/mL in test [3]; 0.0012 µg/mL in test [4]; above 0.01 µg/mL in test [5]; above 0.01 µg/mL in test [6]. Also, the ED-50 in test [7] is 0.000357 µg/mL.
Consider “L-Dolavalyl-L-Leucyl-N-methyl-(3R,4S,5S)-Dolaisoleuinyl-(2R,3R,4S)-Dolaproinyl-N-2(3-chlorophenyl) ethylamide [10c]”, for which the GI-50 in test [1] came out at 0.0038 µg/mL; in test [2], 0.0020 µg/mL; in test [3], 0.0029 µg/mL; in test [4], 0.0019 µg/mL; in test [5] it was 0.0035 µg/mL; in test [6] it was 0.0025 µg/mL. The LC-50 in test [1], in test [2], in test [3], in test [4], in test [5] and in test [6] was above 0.01 µg/mL in each case. Moreover, the TGI is above 0.01 µg/mL in test [1]; above 0.01 µg/mL in test [2]; 0.0084 µg/mL in test [3]; above 0.01 µg/mL in test [4]; above 0.01 µg/mL in test [5]; above 0.01 µg/mL in test [6]. This substance came in with an ED-50 in test [7] of 0.00314 µg/mL.
